In BindingDB's records for patent US20230365590 (Shenzhen Chipscreen Biosciences, 2023):
pIC50: −log10 of the molar value.

Biological target: Programmed cell death 1 ligand/protein 1 (Homo sapiens, UniProt Q15116+Q9NZQ7)
Assay: In Vitro Inhibitory Activity Against PD-1/PD-L1 Binding
Protocol: The experiment process was carried out according to the flow required in the operating manual of the test reagent.The process was as follows:(1) Experiment preparation: A test compound was diluted to different concentration gradients with the dilution buffer (the highest final concentration in a 20 μL final reaction system was 10 μM). The His-PD-1 protein was diluted to 800 nM (the final concentration in the 20 final reaction system was 100 nM). The PD-L1-Fc fusion protein was diluted to 16 nM (the final concentration was 2 nM). […] All tests were conducted by use of multiple holes.(4) The fluorescence detector Tecan (Spark 10M) was used to detect the fluorescence signal of each hole. The excitation wavelength was 320 nm, and the emission wavelengths for detection were 620 nm and 665 nm, respectively. The strength of PD-1/PD-L1 binding refers to a fluorescence signal ratio Em665/Em620.(5) Calculation formula of binding inhibition rate of test compound: Inhibition rate (%)=[1−(fluorescence signal ratio of detected hole−fluorescence signal ratio of 100% inhibition negative control)]/(fluorescence signal ratio of 0% inhibition positive control−fluorescence signal ratio of 100% inhibition negative control)×100%. […]

Sequence of Programmed cell death 1 ligand/protein 1 (Q9NZQ7 whole entry): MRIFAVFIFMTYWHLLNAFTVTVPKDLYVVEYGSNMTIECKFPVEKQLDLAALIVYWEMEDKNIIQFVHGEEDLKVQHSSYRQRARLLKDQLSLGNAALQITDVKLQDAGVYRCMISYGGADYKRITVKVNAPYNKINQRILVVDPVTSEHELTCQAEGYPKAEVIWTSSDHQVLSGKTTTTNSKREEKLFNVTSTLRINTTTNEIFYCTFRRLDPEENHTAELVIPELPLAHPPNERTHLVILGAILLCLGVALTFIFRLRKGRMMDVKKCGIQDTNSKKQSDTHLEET
Sequence of Programmed cell death 1 ligand/protein 1 (Q15116 whole entry): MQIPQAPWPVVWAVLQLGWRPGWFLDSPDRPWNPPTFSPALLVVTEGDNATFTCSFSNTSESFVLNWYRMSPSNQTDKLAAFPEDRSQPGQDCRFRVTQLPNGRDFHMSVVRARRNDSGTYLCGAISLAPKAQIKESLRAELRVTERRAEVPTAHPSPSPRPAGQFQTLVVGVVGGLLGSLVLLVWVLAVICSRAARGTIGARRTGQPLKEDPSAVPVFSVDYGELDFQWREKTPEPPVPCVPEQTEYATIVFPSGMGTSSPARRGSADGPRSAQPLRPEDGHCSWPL

## COCC12CCC(CCN3CCc4c(nc(C(=O)Nc5cccc(-c6cccc(NC(=O)c7nc8c(n7C)CCN(CCC79CCC(C(=O)O)(CC7)C9)C8)c6Cl)c5Cl)n4C)C3)(CC1)C2 [US20230365590, Compound I-6]
  pIC50: 8.93
